Laboratory results from patent publication US11849742B2, “Tasteful natural sweetener and flavor” (priority 2018, dated 2023).

Legend:
[1] = non-sugar natural sweeteners of Momordica grosvenori juice or extract; cited from earlier work
[2] = Kinetics of reaction: degradation of Phe and Reb-A, Gluc, Xyl, Suc at various pH-conditions (HPLC/MS); type: physicochemical
Method: Quantitative evaluation was performed using external standardization.
Kinetics of Reaction in dependence of pH-conditions

[3] = Assay to test reducing power (iron-III reduction); conditions: iron-III reduction and radical scavenging (FIG. 49, FIG. 50); amino acids and Reb-A, 100° C., pH 7.8
Method: 0.2 M Sodium phosphate buffer, pH=6.6; 500 mg Potassium ferric(III)cyanide/50 mL water, 10% Trichloroacetic acid; 20 mg Iron-III-Chloride/20 mL water; Calibration samples were prepared with Ascorbic acid in a concentration of 0-100 μg/mL 0.2 M Sodium phosphate buffer, pH=6.6 (freshly prepared); as negative control sample water was used.
Samples in aqueous solution were used as such or diluted in 0.2 M Sodium phosphate buffer, pH=6.6.
A 1 mL sample (or calibration standard) was mixed with 1 mL 0.2 M Sodium phosphate buffer, pH=6.6 and 1 ml Potassium ferricyanide solution. The sample was incubated and protected from light at 50° C. for 20 min.
To the solution was added 1 mL Trichloroacetic acid with thorough mixing.
A 1 mL of the mixture was diluted with 1 ml H2O and 0.2 ml Iron-III-chloride and reacted for 10 minutes; The absorbance was then determined at 700 nm against H2O.
10 mM of amino acid and/or 10 mM sugar were dissolved in 10 ml 0.1 mM KH2PO4-buffer, pH=7.8. […]
1 ml sample (or calibration standard) solution) was mixed with 0.2 M Sodium phosphate buffer (pH=6.6) and 1 ml Potassium ferric(III)cyanide solution in water (1% w/v) and incubated at 50° C. for 20 minutes. […] The sample was incubated for 10 minutes and absorbance read at 700 nm against a water control. […]
Quantification was performed by linear regression of calibration test results for ascorbic acid. […]

OC[C@@H](O)[C@@H](O)[C@H](O)[C@H](O)CO [D-mannitol]
natural sweetness, times of that of sugar [1]: 0.55-0.65 times of that of sugar

N[C@@H](CCC(=O)O)C(=O)O [Glu]
% degradation ([2]; pH = 5.5): 3.65% | % degradation ([2]; pH = 7.0): 4.6% | % degradation ([2]; pH = 8.5): 7.62%

C=C1C[C@@]23CC[C@H]4[C@@](C)(CCC[C@@]4(C)C(=O)O[C@@H]4O[C@H](CO)[C@@H](O)[C@H](O)[C@H]4O)[C@@H]2CC[C@]1(O[C@@H]1O[C@H](CO)[C@@H](O)[C@H](O[C@@H]2O[C@H](CO)[C@@H](O)[C@H](O)[C@H]2O)[C@H]1O[C@@H]1O[C@H](CO)[C@@H](O)[C@H](O)[C@H]1O)C3 [Reb-A, Rebaudioside A]
anti-oxidant properties [3]: substantial anti-oxidant properties

C[C@H](CC[C@@H](O[C@@H]1O[C@H](CO)[C@@H](O)[C@H](O)[C@H]1O[C@@H]1O[C@H](CO)[C@@H](O)[C@H](O)[C@H]1O)C(C)(C)O)[C@H]1CC[C@@]2(C)[C@H]3CC=C4[C@@H](CC[C@H](O[C@@H]5O[C@H](CO[C@@H]6O[C@H](CO)[C@@H](O)[C@H](O)[C@H]6O)[C@@H](O)[C@H](O)[C@H]5O)C4(C)C)[C@]3(C)[C@H](O)C[C@]12C [mogroside IV]
natural sweetness, times of that of sugar [1]: 126 times of that of sugar

C[C@H](CC[C@@H](O[C@@H]1O[C@H](CO[C@@H]2O[C@H](CO)[C@@H](O)[C@H](O)[C@H]2O)[C@@H](O)[C@H](O)[C@H]1O[C@@H]1O[C@H](CO)[C@@H](O)[C@H](O)[C@H]1O)C(C)(C)O)[C@H]1CC[C@@]2(C)[C@@H]3CC=C4[C@@H](CC[C@H](O[C@@H]5O[C@H](CO[C@@H]6O[C@H](CO)[C@@H](O)[C@H](O)[C@H]6O)[C@@H](O)[C@H](O)[C@H]5O)C4(C)C)[C@]3(C)[C@H](O)C[C@]12C [mogroside V]
natural sweetness, times of that of sugar [1]: 256-344 times of that of sugar
